For the experiment, the target named is T1, human TLR7 (Homo sapiens, UniProt Q9NYK1).
T1 construct: host or cells: HEK-Blue TLR7 cells (engineered human embryonic kidney cells)
T1 sequence (Q9NYK1 27-1049): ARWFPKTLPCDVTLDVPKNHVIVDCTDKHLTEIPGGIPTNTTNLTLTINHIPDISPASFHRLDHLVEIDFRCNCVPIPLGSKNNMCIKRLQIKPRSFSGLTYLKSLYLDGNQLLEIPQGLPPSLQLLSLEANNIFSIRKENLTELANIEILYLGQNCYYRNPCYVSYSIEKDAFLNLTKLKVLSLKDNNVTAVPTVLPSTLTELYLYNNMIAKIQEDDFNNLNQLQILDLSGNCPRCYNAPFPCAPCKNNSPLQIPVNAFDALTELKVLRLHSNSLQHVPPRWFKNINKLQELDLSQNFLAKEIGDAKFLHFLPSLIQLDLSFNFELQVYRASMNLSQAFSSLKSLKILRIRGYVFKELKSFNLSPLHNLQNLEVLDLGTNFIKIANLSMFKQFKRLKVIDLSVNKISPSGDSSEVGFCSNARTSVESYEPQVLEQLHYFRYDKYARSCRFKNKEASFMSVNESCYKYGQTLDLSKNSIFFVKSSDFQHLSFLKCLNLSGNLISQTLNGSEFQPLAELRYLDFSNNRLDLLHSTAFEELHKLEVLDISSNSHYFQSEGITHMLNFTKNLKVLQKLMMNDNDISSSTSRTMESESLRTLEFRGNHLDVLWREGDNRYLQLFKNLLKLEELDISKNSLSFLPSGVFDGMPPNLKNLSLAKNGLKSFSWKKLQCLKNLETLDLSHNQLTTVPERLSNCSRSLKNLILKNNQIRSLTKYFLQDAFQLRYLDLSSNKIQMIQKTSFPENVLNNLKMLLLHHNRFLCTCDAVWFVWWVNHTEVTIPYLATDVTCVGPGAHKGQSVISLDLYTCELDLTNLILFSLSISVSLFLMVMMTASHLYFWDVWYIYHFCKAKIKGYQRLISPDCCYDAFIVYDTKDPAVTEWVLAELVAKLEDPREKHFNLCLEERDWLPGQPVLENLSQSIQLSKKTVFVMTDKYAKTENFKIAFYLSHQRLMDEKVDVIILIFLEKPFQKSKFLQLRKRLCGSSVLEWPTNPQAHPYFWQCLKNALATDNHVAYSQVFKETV
Put plainly: Human TLR7 agonist activity assay (HEK-Blue TLR7 SEAP reporter). Format: cell-based. Particulars: HEK-Blue TLR7 cells, 18 h treatment, average where assay performed multiple times, read-out: hTLR7 Agonism EC50. The method, then:
This procedure describes a method for assaying human TLR7 (hTLR7) agonist activity of the compounds disclosed in this specification.
HEK-Blue™ TLR7 cells were added to each well of a 384-well tissue-culture plate (15,000 cells per well) and incubated 16-18 h at 37° C., 5% CO2. Compounds (100 nl) were dispensed into wells containing the HEK-Blue™ TLR cells and the treated cells were incubated at 37° C., 5% CO2. After 18 h treatment ten microliters of freshly-prepared Quanti-Blue™ reagent (Invivogen) was added to each well, incubated for 30 min (37° C., 5% CO2) and SEAP levels measured using an Envision plate reader (OD=620 nm). The half maximal effective concentration values (EC50; compound concentration which induced a response halfway between the assay baseline and maximum) were calculated.

SMILES strings stand for the structures.

For `CCC[C@@H](CCO)Nc1nc(N)nc2cnn(Cc3ncc(C4CCCNC4)cc3OC)c12` (single isomer, unassigned) [Compound 201], the EC50 (commonly the concentration needed to bring the measured effect to its halfway point) was 256 nM.
With `CCC[C@@H](CCO)Nc1nc(N)nc2cnn(Cc3ncc(C4CCN(C5CCOC5)CC4)cc3OC)c12` (single isomer, unassigned) [Compound 211] the figure was 123 nM.
As to `CCC[C@@H](CCO)Nc1nc(N)nc2cnn(Cc3ncc(C4CCN(C5CCOC5)CC4)cc3OC)c12` (single isomer, unassigned) [Compound 212], the EC50 came out at 6.5 nM.
For `CCCCNc1nc(N)nc2cnn(Cc3ncc(C4CCN(C(CC)CC)CC4)cc3OC)c12` [Compound 130, N7-butyl-1-({3-methoxy-5-[1-(pentan-3-yl)piperidin-4-yl]pyridin-2-yl}methyl)-1H-pyrazolo[4,3-d]pyrimidine-5,7-diamine], the EC50 is 119 nM.
Consider `COc1cc(C2CCN(CCN(C)C)CC2)cnc1Cn1ncc2nc(N)nc(NCc3cc(C)on3)c21` [Compound 145, 1-[(5-{1-[2-(dimethylamino)ethyl]piperidin-4-yl}-3-methoxypyridin-2-yl)methyl]-N7-[(5-methyl-1,2-oxazol-3-yl)methyl]-1H-pyrazolo[4,3-d]pyrimidine-5,7-diamine], for which the EC50 worked out at 101 nM.
The value for `COc1cc(C2CCNCC2)cnc1Cn1ncc2nc(N)nc(NCC3CC4(CC4)C3)c21` [Compound 152, 1-{[3-methoxy-5-(piperidin-4-yl)pyridin-2-yl]methyl}-N7-({spiro[2.3]hexan-5-yl}methyl)-1H-pyrazolo[4,3-d]pyrimidine-5,7-diamine] was 111 nM.
The value for `COc1cc(C2CCN(CCO)CC2)cnc1Cn1ncc2nc(N)nc(NCC3CC4(CC4)C3)c21` [Compound 153, 2-{4-[6-({5-amino-7-[({spiro[2.3]hexan-5-yl}methyl)amino]-1H-pyrazolo[4,3-d]pyrimidin-1-yl}methyl)-5-methoxypyridin-3-yl]piperidin-1-yl}ethan-1-ol] was 86.8 nM; that for `COc1cc(C2CCN(C(=O)CCN(C)C)CC2)cnc1Cn1ncc2nc(N)nc(NCC3CC4(CC4)C3)c21` [Compound 155, 1-{4-[6-({5-amino-7-[({spiro[2.3]hexan-5-yl}methyl)amino]-1H-pyrazolo[4,3-d]pyrimidin-1-yl}methyl)-5-methoxypyridin-3-yl]piperidin-1-yl}-3-(dimethylamino)propan-1-one] was 199 nM.
In the case of `COc1cc(C2CCN(C(C)C)CC2)cnc1Cn1ncc2nc(N)nc(NCC3CC4(CC4)C3)c21` [Compound 156, 1-({3-methoxy-5-[1-(propan-2-yl)piperidin-4-yl]pyridin-2-yl}methyl)-N7-({spiro[2.3]hexan-5-yl}methyl)-1H-pyrazolo[4,3-d]pyrimidine-5,7-diamine], the EC50 worked out at 40.9 nM.
Turning to `CCCCNc1nc(N)nc2cnn(Cc3ccc(C4CCNCC4)cc3OC)c12` [Compound 160, N7-butyl-1-{[2-methoxy-4-(piperidin-4-yl)phenyl]methyl}-1H-pyrazolo[4,3-d]pyrimidine-5,7-diamine], the EC50 turned out to be 13 nM.
The value for `CCCCNc1nc(N)nc2cnn(Cc3ccc(C4CCN(C(=O)CC(C)(C)O)CC4)cc3OC)c12` [Compound 162, 1-[4-(4-{[5-amino-7-(butylamino)-1H-pyrazolo[4,3-d]pyrimidin-1-yl]methyl}-3-methoxyphenyl)piperidin-1-yl]-3-hydroxy-3-methylbutan-1-one] was 12.2 nM; that for `COc1cc(C2CCN(C3CCOCC3)CC2)cnc1Cn1ncc2nc(N)nc(NCc3noc(C)n3)c21` [Compound 200, 1-({3-methoxy-5-[1-(oxan-4-yl)piperidin-4-yl]pyridin-2-yl}methyl)-N7-[(5-methyl-1,2,4-oxadiazol-3-yl)methyl]-1H-pyrazolo[4,3-d]pyrimidine-5,7-diamine] was 117 nM; that for `CCC[C@@H](CCO)Nc1nc(N)nc2cnn(Cc3ccc(C4CN(C(=O)CCN(C)C)CCN4)cc3OC)c12` (stereo partly drawn) [Compound 202, 1-(3-{4-[(5-amino-7-{[(3S)-1-hydroxyhexan-3-yl]amino}-1H-pyrazolo[4,3-d]pyrimidin-1-yl)methyl]-3-methoxyphenyl}piperazin-1-yl)-3-(dimethylamino)propan-1-one] was 496 nM.
The value for `CCC[C@@H](CCO)Nc1nc(N)nc2cnn(Cc3ccc(C4CN(C5CCOCC5)CCN4)cc3OC)c12` (stereo partly drawn) [Compound 203, (3S)-3-{[5-amino-1-({2-methoxy-4-[4-(oxan-4-yl)piperazin-2-yl]phenyl}methyl)-1H-pyrazolo[4,3-d]pyrimidin-7-yl]amino}hexan-1-ol] was 35 nM; that for `CCC[C@@H](CCO)Nc1nc(N)nc2cnn(Cc3ncc(C4CCN(Cc5ncn(C)n5)CC4)cc3OC)c12` [Compound 204, (3S)-3-({5-amino-1-[(3-methoxy-5-{1-[(1-methyl-1H-1,2,4-triazol-3-yl)methyl]piperidin-4-yl}pyridin-2-yl)methyl]-1H-pyrazolo[4,3-d]pyrimidin-7-yl}amino)hexan-1-ol] was 91.1 nM; that for `CCC[C@@H](CCO)Nc1nc(N)nc2cnn(Cc3ncc(C4CCN(CCS(C)(=O)=O)CC4)cc3OC)c12` [Compound 206, (3S)-3-{[5-amino-1-({5-[1-(2-methanesulfonylethyl)piperidin-4-yl]-3-methoxypyridin-2-yl}methyl)-1H-pyrazolo[4,3-d]pyrimidin-7-yl]amino}hexan-1-ol] was 74.9 nM.
The value for `CCC[C@@H](CCO)Nc1nc(N)nc2cnn(Cc3ncc(C4CCN(Cc5ncco5)CC4)cc3OC)c12` [Compound 207, (3S)-3-({5-amino-1-[(3-methoxy-5-{1-[(1,3-oxazol-2-yl)methyl]piperidin-4-yl}pyridin-2-yl)methyl]-1H-pyrazolo[4,3-d]pyrimidin-7-yl}amino)hexan-1-ol] was 25.1 nM; that for `CCC[C@@H](CCO)Nc1nc(N)nc2cnn(Cc3ncc(C4CCN(C(=O)CN5CCOCC5)CC4)cc3OC)c12` [Compound 208, 1-(4-{6-[(5-amino-7-{[(3S)-1-hydroxyhexan-3-yl]amino}-1H-pyrazolo[4,3-d]pyrimidin-1-yl)methyl]-5-methoxypyridin-3-yl}piperidin-1-yl)-2-(morpholin-4-yl)ethan-1-one] was 168 nM; that for `CCC[C@@H](CCO)Nc1nc(N)nc2cnn(Cc3ccc(C4CN(CC(C)(C)O)CCN4)cc3OC)c12` (stereo partly drawn) [Compound 209, (3S)-3-{[5-amino-1-({4-[4-(2-hydroxy-2-methylpropyl)piperazin-2-yl]-2-methoxyphenyl}methyl)-1H-pyrazolo[4,3-d]pyrimidin-7-yl]amino}hexan-1-ol] was 12.3 nM.
In the case of `CCC[C@@H](CCO)Nc1nc(N)nc2cnn(Cc3ncc(C4CCN(C5CCOC5)CC4)cc3OC)c12` (stereo partly drawn) [Compound 210, (3S)-3-{[5-amino-1-({3-methoxy-5-[1-(oxolan-3-yl)piperidin-4-yl]pyridin-2-yl}methyl)-1H-pyrazolo[4,3-d]pyrimidin-7-yl]amino}hexan-1-ol], the EC50 is 9.05 nM.
The value for `CCC[C@@H](CCO)Nc1nc(N)nc2cnn(Cc3ncc(C4CCN(C5CCN(C)CC5)CC4)cc3OC)c12` [Compound 213, (3S)-3-({5-amino-1-[(3-methoxy-5-{1′-methyl-[1,4′-bipiperidine]-4-yl}pyridin-2-yl)methyl]-1H-pyrazolo[4,3-d]pyrimidin-7-yl}amino)hexan-1-ol] was 56.6 nM; that for `CCC[C@@H](CCO)Nc1nc(N)nc2cnn(Cc3ncc(C4CCN(C5CCNCC5)CC4)cc3OC)c12` [Compound 214, (3S)-3-([5-amino-1-[(5-{[1,4′-bipiperidine]-4-yl}-3-methoxypyridin-2-yl)methyl]-1H-pyrazolo[4,3-d]pyrimidin-7-yl}amino)hexan-1-ol] was 315 nM; that for `CCC[C@@H](CCO)Nc1nc(N)nc2c(C)nn(Cc3ncc(C4CCN(C5CCOCC5)CC4)cc3OC)c12` [Compound 215, (3S)-3-{[5-amino-1-({3-methoxy-5-[1-(oxan-4-yl)piperidin-4-yl]pyridin-2-yl}methyl)-3-methyl-1H-pyrazolo[4,3-d]pyrimidin-7-yl]amino}hexan-1-ol] was 29.8 nM.

Values taken from patent publication US20230144824A1, “1H-PYRAZOLO[4,3-d]PYRIMIDINE COMPOUNDS AS TOLL-LIKE RECEPTOR 7 (TLR7) AGONISTS” (BRISTOL-MYERS SQUIBB COMPANY, priority 2020, published 2023).
